Measured values taken from article PMC6405875 (Scientific Reports, 2019).

Assays:
WT hDAT [1] = target: T1, WT hDAT (Homo sapiens, UniProt Q01959); assay: [3H]DA uptake in PC12 cells transfected with WT hDAT; assay type: cell-based
T1 construct: expressed in transfected cells; host or cells: rat PC12 cells (ATCC CRL-1721), pcDNA3.1+
Description: (§1) In the current study, we used rat pheochromocytoma cells (PC12 cells, CRL-1721, American Type Culture Collection (ATCC), Manassas, VA), which were maintained in Dulbecco’s modified eagle medium (DMEM, Life Technologies, Carlsbad, CA) supplemented with 15% horse serum, 2.5% bovine calf serum, 2 mM glutamine and antibiotics, 100 U/mL penicillin and 100 µg/mL streptomycin. Cells were cultured at 37 °C in a 5% CO2 incubator. Once cells were growing to 100% confluence on plates, cells were seeded at a density of 1 × 10^5 cells/cm^2 in 24-well plates and transfected with WT hDAT or mutants by Lipofectamine 2000 (Life Technologies). Twenty-four hours after transfection, intact cells or cell suspensions were used for experiments.
(§2) Twenty-four hours after transfection, cells in 24-well plates were washed twice with Krebs-Ringer-HEPES (KRH) buffer (final concentration in mM: 125 NaCl, 5 KCl, 1.5 MgSO4, 1.25 CaCl2, 1.5 KH2PO4, 10 D-glucose, 25 HEPES, 0.1 EDTA, 0.1 pargyline, and 0.1 L-ascorbic acid; pH 7.4) and incubated with nomifensine (10 µM, final concentration) as nonspecific uptake for 10 min at room temperature. […] The reaction was terminated by removal of solution from wells and quickly washed three times with ice cold KRH buffer. Cells were then lysed in 500 μL of 1% SDS for an hour and radioactivity was measured using a liquid scintillation counter (Tri-Carb 2900TR; PerkinElmer Life and Analytical Sciences, Waltham, MA).
(§3) In brief, cells were dissociated with trypsin/EDTA (0.25%/0.1%, 1 mL for one 10 cm dish) and resuspended in culture medium and incubated at room temperature for 10 min. The dissociated cells were collected by centrifugation at 400 × g for 5 min at 4 °C and washed once with phosphate-buffered saline followed by additional 5 min centrifugation (400 × g, 4 °C). Finally, the resulted cell pellets were resuspended in KRH assay buffer. […] The update reaction was terminated by immediate filtration through Whatman GF/B glass filters (presoaked with 1 mM pyrocatechol for 3 h) followed by three washes with 3 mL of ice-cold KRH buffer containing pyrocatechol using a Brandel cell harvester (model M-48; Brandel Inc., Gaithersburg, MD). Radioactivity was determined as described above.

hDAT Y88F/H547A [2] = target: T2, hDAT Y88F/H547A (Homo sapiens, UniProt Q01959, H547A/Y88F); assay: [3H]DA uptake in PC12 cells transfected with Y88F/H547A hDAT; assay type: cell-based
T2 construct: expressed in transfected cells; host or cells: rat PC12 cells (ATCC CRL-1721), pcDNA3.1+
T2 sequence (Q01959 1-620 Y88F/H547A): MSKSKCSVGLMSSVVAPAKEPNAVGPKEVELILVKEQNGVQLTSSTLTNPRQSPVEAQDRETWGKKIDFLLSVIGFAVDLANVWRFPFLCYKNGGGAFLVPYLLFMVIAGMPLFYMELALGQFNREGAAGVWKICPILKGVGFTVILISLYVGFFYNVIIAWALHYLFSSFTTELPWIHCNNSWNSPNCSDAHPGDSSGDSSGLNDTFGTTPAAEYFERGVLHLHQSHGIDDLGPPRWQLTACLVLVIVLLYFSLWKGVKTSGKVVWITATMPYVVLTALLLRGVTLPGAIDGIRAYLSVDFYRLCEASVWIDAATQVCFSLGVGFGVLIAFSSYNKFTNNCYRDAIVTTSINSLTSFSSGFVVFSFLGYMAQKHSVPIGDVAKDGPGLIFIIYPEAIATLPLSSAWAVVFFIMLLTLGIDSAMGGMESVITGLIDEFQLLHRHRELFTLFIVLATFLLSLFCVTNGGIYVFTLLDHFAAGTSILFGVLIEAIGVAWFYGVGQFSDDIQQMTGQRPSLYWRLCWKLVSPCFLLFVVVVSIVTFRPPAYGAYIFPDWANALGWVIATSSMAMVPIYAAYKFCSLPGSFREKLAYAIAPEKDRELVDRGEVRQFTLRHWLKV
Description: as §1, §2, §3

WT hDAT [3] = target: T1, WT hDAT; details: 1 µM PMA; cited from earlier work
hDAT H547A [4] = target: T3, hDAT H547A (Homo sapiens, UniProt Q01959, H547A); details: 1 µM PMA; H547A mutant; cited from earlier work
T3 construct: expressed in transfected cells; host or cells: rat PC12 cells (ATCC CRL-1721), pcDNA3.1+

hDAT Y88F/K92M/H547A = target: T4, hDAT Y88F/K92M/H547A (Homo sapiens, UniProt Q01959, H547A/K92M/Y88F)
T4 sequence (Q01959 1-620 Y88F/K92M/H547A): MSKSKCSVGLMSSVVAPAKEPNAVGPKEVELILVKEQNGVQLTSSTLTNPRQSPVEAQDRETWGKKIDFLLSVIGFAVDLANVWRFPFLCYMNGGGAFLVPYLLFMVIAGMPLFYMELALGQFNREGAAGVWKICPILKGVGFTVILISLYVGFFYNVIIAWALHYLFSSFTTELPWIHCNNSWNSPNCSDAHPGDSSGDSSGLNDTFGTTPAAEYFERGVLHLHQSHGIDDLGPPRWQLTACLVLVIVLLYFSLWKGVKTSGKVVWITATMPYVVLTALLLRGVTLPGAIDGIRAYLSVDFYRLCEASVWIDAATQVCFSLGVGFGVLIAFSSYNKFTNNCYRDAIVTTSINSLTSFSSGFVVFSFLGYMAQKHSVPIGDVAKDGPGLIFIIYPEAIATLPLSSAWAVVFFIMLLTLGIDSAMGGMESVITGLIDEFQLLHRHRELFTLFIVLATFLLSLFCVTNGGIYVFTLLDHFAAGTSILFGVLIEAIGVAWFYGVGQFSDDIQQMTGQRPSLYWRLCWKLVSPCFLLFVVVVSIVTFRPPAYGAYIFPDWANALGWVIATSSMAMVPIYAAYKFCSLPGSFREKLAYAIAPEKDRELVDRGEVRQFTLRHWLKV
Description: as §1
Twenty-four hours after transfection, cells in 24-well plates were washed twice with Krebs-Ringer-HEPES (KRH) buffer (final concentration in mM: 125 NaCl, 5 KCl, 1.5 MgSO4, 1.25 CaCl2, 1.5 KH2PO4, 10 D-glucose, 25 HEPES, 0.1 EDTA, 0.1 pargyline, and 0.1 L-ascorbic acid; pH 7.4) and incubated with nomifensine (10 µM, final concentration) as nonspecific uptake for 10 min at room temperature. […] Cells were then lysed in 500 μL of 1% SDS for an hour and radioactivity was measured using a liquid scintillation counter (Tri-Carb 2900TR; PerkinElmer Life and Analytical Sciences, Waltham, MA).

WT hDAT [5] = target: T1, WT hDAT; assay: [3H]WIN 35,428 binding in intact PC12 cells transfected with WT hDAT
hDAT Y88F/H547A [6] = target: T2, hDAT Y88F/H547A; assay: [3H]WIN 35,428 binding in intact PC12 cells transfected with Y88F/H547A hDAT; details: Zn2+ 10 and 100 µM
WT hDAT [7] = target: T1, WT hDAT; assay: AMPH-stimulated [3H]DA efflux, WT hDAT; assay type: cell-based; details: AMPH 5–250 µM, fractional release of cellular [3H]DA
Description: as §1

hDAT Y88F = target: T5, hDAT Y88F (Homo sapiens, UniProt Q01959, Y88F); assay: AMPH-stimulated [3H]DA efflux, Y88F hDAT; assay type: cell-based; details: AMPH 5–250 µM, fractional release of cellular [3H]DA
T5 construct: expressed in transfected cells; host or cells: rat PC12 cells (ATCC CRL-1721), pcDNA3.1+
T5 sequence (Q01959 1-620 Y88F): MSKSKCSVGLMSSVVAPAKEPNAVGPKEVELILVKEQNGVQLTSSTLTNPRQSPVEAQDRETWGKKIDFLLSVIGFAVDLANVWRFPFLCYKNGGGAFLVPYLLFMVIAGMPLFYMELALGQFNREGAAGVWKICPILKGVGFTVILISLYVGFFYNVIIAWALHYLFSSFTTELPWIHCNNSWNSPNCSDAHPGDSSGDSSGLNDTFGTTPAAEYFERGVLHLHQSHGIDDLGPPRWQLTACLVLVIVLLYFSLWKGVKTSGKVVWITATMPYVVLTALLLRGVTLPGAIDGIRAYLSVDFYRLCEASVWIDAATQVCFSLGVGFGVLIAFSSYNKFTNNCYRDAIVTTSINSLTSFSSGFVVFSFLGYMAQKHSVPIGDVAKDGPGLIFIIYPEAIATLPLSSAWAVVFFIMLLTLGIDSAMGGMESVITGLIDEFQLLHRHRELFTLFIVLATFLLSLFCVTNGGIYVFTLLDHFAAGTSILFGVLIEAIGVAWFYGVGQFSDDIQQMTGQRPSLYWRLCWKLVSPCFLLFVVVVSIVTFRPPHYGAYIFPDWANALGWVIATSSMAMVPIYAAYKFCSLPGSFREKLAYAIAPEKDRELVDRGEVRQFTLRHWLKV
Description: as §1

hDAT Y88A = target: T6, hDAT Y88A (Homo sapiens, UniProt Q01959, Y88A); assay: AMPH-stimulated [3H]DA efflux, Y88A hDAT; assay type: cell-based; details: AMPH 5–250 µM, fractional release of cellular [3H]DA
T6 construct: expressed in transfected cells; host or cells: rat PC12 cells (ATCC CRL-1721)
T6 sequence (Q01959 1-620 Y88A): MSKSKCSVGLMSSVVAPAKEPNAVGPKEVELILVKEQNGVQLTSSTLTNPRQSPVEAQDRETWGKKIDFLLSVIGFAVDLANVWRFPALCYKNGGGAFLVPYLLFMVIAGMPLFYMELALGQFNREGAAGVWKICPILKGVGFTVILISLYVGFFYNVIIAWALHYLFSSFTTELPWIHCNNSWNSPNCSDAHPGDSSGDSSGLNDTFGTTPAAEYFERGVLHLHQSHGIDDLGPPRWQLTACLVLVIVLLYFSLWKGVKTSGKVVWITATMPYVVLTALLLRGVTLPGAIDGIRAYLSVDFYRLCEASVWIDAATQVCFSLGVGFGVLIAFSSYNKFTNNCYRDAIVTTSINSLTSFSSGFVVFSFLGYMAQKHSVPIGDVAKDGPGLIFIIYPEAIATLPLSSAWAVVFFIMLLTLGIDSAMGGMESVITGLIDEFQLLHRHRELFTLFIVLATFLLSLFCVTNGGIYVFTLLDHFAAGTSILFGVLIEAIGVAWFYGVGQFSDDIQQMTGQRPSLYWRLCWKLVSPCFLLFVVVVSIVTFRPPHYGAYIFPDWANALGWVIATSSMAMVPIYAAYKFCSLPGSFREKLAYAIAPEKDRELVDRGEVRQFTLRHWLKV
Description: as §1

hDAT H547A [8] = target: T3, hDAT H547A; assay: AMPH-stimulated [3H]DA efflux, H547A hDAT; assay type: cell-based; details: AMPH 5–250 µM, fractional release of cellular [3H]DA
Description: as §1

hDAT Y88F/H547A [9] = target: T2, hDAT Y88F/H547A; assay: AMPH-stimulated [3H]DA efflux, Y88F/H547A hDAT; assay type: cell-based; parameters: unit not given here; details: AMPH 5–250 µM, fractional release of cellular [3H]DA
[10] = substrate: NCCc1ccc(O)c(O)c1; assay: cells, lysate or membranes; details: other: PC12 cells, Y88F/H547A; pH 7.4; 37.0 °C

T1 sequence (Q01959 whole entry): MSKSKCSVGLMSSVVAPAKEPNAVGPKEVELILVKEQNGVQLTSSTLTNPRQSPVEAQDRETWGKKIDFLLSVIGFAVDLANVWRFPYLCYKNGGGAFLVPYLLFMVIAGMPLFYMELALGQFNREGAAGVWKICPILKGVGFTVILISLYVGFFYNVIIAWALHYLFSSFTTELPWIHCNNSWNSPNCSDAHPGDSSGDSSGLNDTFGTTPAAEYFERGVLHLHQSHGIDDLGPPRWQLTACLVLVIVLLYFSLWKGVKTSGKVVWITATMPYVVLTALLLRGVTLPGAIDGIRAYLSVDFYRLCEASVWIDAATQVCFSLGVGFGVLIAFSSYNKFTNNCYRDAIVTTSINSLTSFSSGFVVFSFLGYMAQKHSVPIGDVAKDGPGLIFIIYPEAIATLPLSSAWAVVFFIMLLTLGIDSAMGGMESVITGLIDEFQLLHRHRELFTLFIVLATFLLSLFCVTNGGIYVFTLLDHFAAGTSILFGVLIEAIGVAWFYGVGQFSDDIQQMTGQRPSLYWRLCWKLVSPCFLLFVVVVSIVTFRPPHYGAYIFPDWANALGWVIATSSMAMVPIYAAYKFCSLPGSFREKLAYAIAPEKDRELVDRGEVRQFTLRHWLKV
T3 sequence (Q01959 whole entry H547A): as the sequence (Q01959 whole entry) above, with H547A counted along it

Molecule: CCCCCCCCCCCCCC(=O)O[C@@H]1[C@@H](C)[C@@]2(O)[C@@H](C=C(CO)C[C@]3(O)C(=O)C(C)=C[C@@H]23)[C@@H]2C(C)(C)[C@]12OC(C)=O [PMA, phorbol 12-myristate 13-acetate]
- Reduction of Km of [3H]DA uptake vs control (WT hDAT [1]): 53%
- Reduction of Vmax of [3H]DA uptake vs vehicle control (WT hDAT [1]): 51%
- Reduction of Km of [3H]DA uptake vs control (hDAT Y88F/H547A [2]): 63%
- Reduction of Vmax of [3H]DA uptake vs vehicle control (hDAT Y88F/H547A [2]): 60%
- Decrease in Vmax of DA uptake vs control (WT hDAT [3]): 40%
- Decrease in Vmax of DA uptake vs control (hDAT H547A [4]): 60%

Molecule: rTat1–86: recombinant HIV-1 transactivator of transcription protein, residues 1–86 (Diatheva)
- Reduction of specific [3H]DA uptake relative to control (WT hDAT [1]; 140 nM rTat1–86, 20 min preincubation, WT hDAT): 31%
- Tat-induced reduction of [3H]DA uptake relative to control (hDAT Y88F/H547A [2]; 140 nM rTat1–86, 20 min preincubation, Y88F/H547A, p > 0.05 vs control): attenuated

Molecule: NCCc1ccc(O)c(O)c1 [DA, Dopamine]
- Vmax of [3H]DA uptake (WT hDAT [1]; AMPH experiment, in the absence of AMPH, WT hDAT): 11.5 ± 0.94 pmol/min/10^5 cells
- Km (WT hDAT [1]; PC12 cells, WT hDAT): 1.21 ± 0.17 µM
- Vmax of [3H]DA uptake (WT hDAT [1]; PC12 cells, WT hDAT): 12.52 ± 0.68 pmol/min/10^5 cells
- Vmax of [3H]DA uptake (hDAT Y88F/H547A [2]; AMPH experiment, in the absence of AMPH, Y88F/H547A): 18.9 ± 2.81 pmol/min/10^5 cells
- Vmax of [3H]DA uptake (hDAT Y88F/H547A [2]; PC12 cells, Y88F/H547A): 24.06 ± 4.32 pmol/min/10^5 cells
- Vmax of [3H]DA uptake (hDAT Y88F/K92M/H547A; PC12 cells): 0.5 ± 0.31 pmol/min/10^5 cells
- Km (hDAT Y88F/K92M/H547A; read-out: Km of [3H]DA uptake, PC12 cells): 1.89 ± 1.25 µM

Molecule: [Cl-].[Cl-].[Zn+2] [Zn^2+, ZnCl2]
- Reduction of [3H]DA uptake vs control (absence of Zn2+) (WT hDAT [1]; Zn2+ 10 µM, WT hDAT): ~ 40%
- Reduction of [3H]DA uptake vs control (absence of Zn2+) (WT hDAT [1]; Zn2+ 100 µM, WT hDAT): ~ 40%
- Reduction of [3H]DA uptake vs control (absence of Zn2+) (hDAT Y88F/H547A [2]; Zn2+ 10 µM, Y88F/H547A): 60%
- Reduction of [3H]DA uptake vs control (absence of Zn2+) (hDAT Y88F/H547A [2]; Zn2+ 100 µM, Y88F/H547A): 71%
- Increase of [3H]WIN35,428 binding vs control (absence of Zn2+) (WT hDAT [5]; Zn2+ 10 µM): 49%
- Increase of [3H]WIN35,428 binding vs control (absence of Zn2+) (WT hDAT [5]; Zn2+ 100 µM): 69%
- Zn2+-induced increase in [3H]WIN 35,428 binding compared with WT hDAT (hDAT Y88F/H547A [6]): significantly diminished

Molecule: CC(N)Cc1ccccc1 (centres unmarked) [AMPH, amphetamine]
- AMPH-induced decrease of Vmax of [3H]DA uptake vs control (WT hDAT [1]; AMPH 1 µM, WT hDAT): 32%
- Vmax of [3H]DA uptake in presence of AMPH (WT hDAT [1]; AMPH 1 µM, WT hDAT): 7.80 ± 0.97 pmol/min/10^5 cells
- AMPH-induced decrease of Vmax of [3H]DA uptake vs control (hDAT Y88F/H547A [2]; AMPH 1 µM, Y88F/H547A): 42%
- Vmax of [3H]DA uptake in presence of AMPH (hDAT Y88F/H547A [2]; AMPH 1 µM, Y88F/H547A): 10.9 ± 1.33 pmol/min/10^5 cells
- Vmax of AMPH-stimulated [3H]DA efflux (WT hDAT [7]): 0.42 ± 0.03
- Vmax of AMPH-stimulated [3H]DA efflux (hDAT Y88F): 0.28 ± 0.06
- Vmax of AMPH-stimulated [3H]DA efflux (hDAT Y88A): 0.29 ± 0.01
- Vmax of AMPH-stimulated [3H]DA efflux (hDAT H547A [8]): 0.22 ± 0.04
- Vmax of AMPH-stimulated [3H]DA efflux (hDAT Y88F/H547A [9]): 0.20 ± 0.03

B1: hDAT Y88F/H547A (Homo sapiens; H547A/Y88F) (protein)
chain: MSKSKCSVGLMSSVVAPAKEPNAVGPKEVELILVKEQNGVQLTSSTLTNPRQSPVEAQDRETWGKKIDFLLSVIGFAVDLANVWRFPFLCYKNGGGAFLVPYLLFMVIAGMPLFYMELALGQFNREGAAGVWKICPILKGVGFTVILISLYVGFFYNVIIAWALHYLFSSFTTELPWIHCNNSWNSPNCSDAHPGDSSGDSSGLNDTFGTTPAAEYFERGVLHLHQSHGIDDLGPPRWQLTACLVLVIVLLYFSLWKGVKTSGKVVWITATMPYVVLTALLLRGVTLPGAIDGIRAYLSVDFYRLCEASVWIDAATQVCFSLGVGFGVLIAFSSYNKFTNNCYRDAIVTTSINSLTSFSSGFVVFSFLGYMAQKHSVPIGDVAKDGPGLIFIIYPEAIATLPLSSAWAVVFFIMLLTLGIDSAMGGMESVITGLIDEFQLLHRHRELFTLFIVLATFLLSLFCVTNGGIYVFTLLDHFAAGTSILFGVLIEAIGVAWFYGVGQFSDDIQQMTGQRPSLYWRLCWKLVSPCFLLFVVVVSIVTFRPPAYGAYIFPDWANALGWVIATSSMAMVPIYAAYKFCSLPGSFREKLAYAIAPEKDRELVDRGEVRQFTLRHWLKV
- Km [10]: 4.25 ± 1.05 µM
